Assay: solvent given as SMILES

C=CC(=C)C
Details	solvation free energy, 298 K [kcal/mol]
in BrC(Br)C(Br)Br	-2.83
in Brc1cccc2ccccc12	-2.82
in C1=Cc2ccccc2C1	-3.1
in CC1COC(=O)O1	-2.45
in CC(=O)N(C)C	-2.89
in CC(=O)OCc1ccccc1	-2.93
in CC(=O)c1ccccc1	-2.93
in CC(C)CC(C)(C)C	-3.16
in CCC(C)=O	-3.27
in CCCCC#N	-3.06
in CCCCCC#N	-3.11
in CCCCCCC	-3.22
in CCCCCCCC	-3.18
in CCCCCCCCO	-2.81
in CCCCO	-2.89
in CCNC(C)=O	-2.81
in CCOC(C)=O	-3.29
in CN1CCCC1=O	-2.89
in CN(C)C=O	-2.88
in CN(C)P(=O)(N(C)C)N(C)C	-2.89
in CNC(C)=O	-2.74
in CNC=O	-2.44
in CS(C)=O	-2.38
in Cc1cccc2ccccc12	-2.94
in Cc1cccc(O)c1	-2.72
in ClC(Cl)(Cl)Cl	-3.49
in ClC(Cl)C(Cl)Cl	-3.21
in ClCCCl	-3.3
in Clc1cccc2ccccc12	-2.81
in N#CCCCC#N	-2.06
in N#CCCCCC#N	-2.35
in N#CCc1ccccc1	-2.7
in N#Cc1ccccc1	-3
in NCc1ccccc1	-2.85
in Nc1ccccc1	-2.56
in O	0.68
in O=C1CCCCC1	-3.22
in O=C(O)C(Cl)Cl	-2.77
in OCCO	-1.12
in OCc1ccccc1	-2.56
in c1ccc2ncccc2c1	-2.82

CCCC[N+](=O)[O-]
Details	solvation free energy, 298 K [kcal/mol]
in CCCCCC	-4.64
in O	-3.1

C(=Cc1ccccc1)c1ccccc1
Details	solvation free energy, 298 K [kcal/mol]
in C1CCOC1	-11.8
in C1COCCO1	-11.5
in CC(C)(C)O	-9.66
in CC(C)CC(C)(C)C	-9.92
in CC(C)CC(C)O	-9.81
in CC(C)CCCC(C)CCO	-10
in CC(C)CCO	-9.88
in CC(C)CO	-9.73
in CC(C)O	-9.74
in CCC(C)(C)O	-9.84
in CCC(C)=O	-11.5
in CCC(C)O	-9.81
in CCCC(C)CO	-9.92
in CCCC(C)O	-9.91
in CCCCC(CC)CO	-10
in CCCCCC	-10.2
in CCCCCCC	-10.2
in CCCCCCCC	-10.2
in CCCCCCCCCC	-10.2
in CCCCCCCCCCO	-10.2
in CCCCCCCCO	-10.2
in CCCCCCCO	-10.2
in CCCCCCO	-10.1
in CCCCCO	-10.1
in CCCCO	-10
in CCCCOC(C)=O	-11.2
in CCCCOCCCC	-10.6
in CCCO	-9.97
in CCO	-9.99
in CCOC(C)=O	-11.2
in CCOCC	-11
in CN(C)C=O	-11.6
in CO	-9.92
in COC(C)(C)C	-10.9
in COC(C)=O	-11.2
in Cc1ccc(C)cc1	-11.3
in Cc1cccc(C)c1	-11.2
in Cc1ccccc1C	-11.3
in ClC(Cl)(Cl)Cl	-11.2
in Clc1ccccc1	-11.5
in O	-3.79

CCCCCC(=O)c1c(C)[nH]n(-c2ccccc2)c1=O
Details	solvation free energy, 298 K [kcal/mol]
in O	-9.26

C1CNCCN1
Details	solvation free energy, 298 K [kcal/mol]
in O	-7.4

FC(F)(Cl)C(F)(F)Cl
Details	solvation free energy, 298 K [kcal/mol]
in CCCCCCCC(=O)OCC(COC(=O)CCCCCCC)OC(=O)CCCCCCC	-1.63
in CCCCCCCCO	-1.61
in CN1CCCC1=O	-1.49
in CN(C)C=O	-1.6
in O	2.25

CCCCBr
Details	solvation free energy, 298 K [kcal/mol]
in C=CCCCCCCCCCCCCCC	-4.19
in CC(C)(C)O	-4.09
in CC(C)CO	-4.15
in CCC(C)O	-4.19
in CCCCCCCCCCO	-4.19
in CCCCCCCCO	-4.22
in CCO	-4.22
in ClC(Cl)(Cl)Cl	-4.75
in O	-0.34

CCOCCOC(C)=O
Details	solvation free energy, 298 K [kcal/mol]
in O	-5.31

ClC=C(Cl)Cl
Details	solvation free energy, 298 K [kcal/mol]
in C1COCCO1	-4.91
in CC(=O)N(C)C	-4.8
in CCCCCCCCC=CCCCCCCCC(=O)OCC(COC(=O)CCCCCCCC=CCCCCCCCC)OC(=O)CCCCCCCC=CCCCCCCCC	-4.37
in CCCCCCCCCC	-3.84
in CCCCCCCCO	-4.09
in CCCCN(C=O)CCCC	-4.62
in CNC(C)=O	-4.35
in O	-0.46

CCCC(=O)CC(C)=O
Details	solvation free energy, 298 K [kcal/mol]
in O	-4.39

CCCCCc1ccccc1
Details	solvation free energy, 298 K [kcal/mol]
in O	-0.23

Oc1ccc(-c2ccccc2)cc1
Details	solvation free energy, 298 K [kcal/mol]
in CC(C)CC(C)(C)C	-9.58
in CCCCOCCCC	-12.8
in O	-8.89

Reference: the CombiSolv-Exp solvation set (Vermeire and Green 2021)
